What is called MIC is the smallest concentration in the dilution series that meets the test's criterion for growth inhibition. A lower MIC goes with greater potency. One may read the ED50 as the dose at which the effect has come halfway, by size or by number of responders. High values mean weaker potency, low ones greater potency.

In ChEMBL document CHEMBL1141053, “Synthesis and SAR of novel oxazolidinones: discovery of ranbezolid” (2005) one finds MIC and ED50 data, which are given here for 27 compounds.

What all share (assay type): functional
In assay [1] the test system is Staphylococcus aureus. In words: In vitro minimum inhibitory concentration against methicillin-resistant Staphylococcus aureus 562 after incubation in air at 35 degree C for 24 hr using agar dilution method. For orientation: In agar dilution the substance is mixed into plates at graded concentrations.
The test system of assay [2] is Staphylococcus aureus. Put plainly: In vitro minimum inhibitory concentration against Staphylococcus aureus ATCC 25923 after incubation in air at 35 degree C for 24 hr using agar dilution method. To be noted: ATCC 25923, 24 h.
Assay [3] deals with Streptococcus pneumoniae. Put plainly: In vitro minimum inhibitory concentration against Streptococcus pneumoniae ATCC 6303 after incubation in air at 35 degree C for 24 hr using agar dilution method. To be noted: ATCC 6303, 24 h.
The subject of assay [4] is Enterococcus faecalis. In words: In vitro minimum inhibitory concentration against Enterococcus faecalis ATCC 29212 after incubation in air at 35 degree C for 24 hr using agar dilution method. As to conditions: ATCC 29212, 24 h.
The subject of assay [5] is Streptococcus pyogenes. In words: In vitro minimum inhibitory concentration against Streptococcus pyogenes ATCC 19615 after incubation in air at 35 degree C for 24 hr using agar dilution method. As to conditions: ATCC 19615, 24 h.
Assay [6] relates to Enterococcus faecium. In words: In vitro minimum inhibitory concentration against vancomycin-resistant Enterococcus faecium 6A after incubation in air at 35 degree C for 24 hr using agar dilution method.
Assay [7] relates to Staphylococcus aureus. In words: In vivo effective dose (on day 7-post-infection) against methicillin-resistant Staphylococcus aureus 562 infected mice upon peroral administration at 30 min and 4 hr post-infection. To be noted: po.

Values after ≈ are worked out from the molar mass of the structure shown.

`CC(=O)NC[C@H]1CN(c2ccc(N3CCC(N(C)c4ccc([N+](=O)[O-])o4)C(C)C3)c(F)c2)C(=O)O1` (some centres undefined): the minimal inhibitory concentration (MIC) in assay [1], in assay [2], in assay [3], in assay [4], in assay [5] and in assay [6] was above 16 µg/mL in each case.
Turning to `CC(=O)NC[C@H]1CN(c2ccc(N3CCN(Cc4ccc([N+](=O)[O-])s4)CC3)c(F)c2)C(=O)O1`, the minimal inhibitory concentration (MIC) was 8 µg/mL (≈ 16.8 µM) in assay [1]; 8 µg/mL (≈ 16.8 µM) in assay [2]; 8 µg/mL (≈ 16.8 µM) in assay [3]; 8 µg/mL (≈ 16.8 µM) in assay [4]; 1 µg/mL (≈ 2.09 µM) in assay [5]; 8 µg/mL (≈ 16.8 µM) in assay [6].
`CC(=O)NC[C@H]1CN(c2ccc(N3C[C@@H]4[C@@H](CN(C)c5ccc([N+](=O)[O-])o5)[C@@H]4C3)c(F)c2)C(=O)O1`: the minimum inhibitory concentration (MIC) in assay [1] turned out to be 1 µg/mL (≈ 2.05 µM); in assay [2], 2 µg/mL (≈ 4.1 µM); in assay [4] it was 4 µg/mL (≈ 8.21 µM); in assay [5] it was 0.125 µg/mL (≈ 0.256 µM); in assay [6], 2 µg/mL (≈ 4.1 µM). This compound also displayed a median effective dose (ED50) in assay [7] above 25 mg/kg.
For the compound `CC(=O)NC[C@H]1CN(c2ccc(N3CCN(Cc4ccc(Cl)o4)CC3)c(F)c2)C(=O)O1`, the minimum inhibitory concentration (MIC) in assay [1], in assay [2], in assay [3], in assay [4], in assay [5] and in assay [6] was above 16 µg/mL each time.
Take `CC(=O)NC[C@H]1CN(c2ccc(N3C[C@@H](C)N(Cc4ccc([N+](=O)[O-])o4)[C@@H](C)C3)c(F)c2)C(=O)O1`: the MIC is 8 µg/mL (≈ 16.3 µM) in assay [1]; 16 µg/mL (≈ 32.7 µM) in assay [2]; 16 µg/mL (≈ 32.7 µM) in assay [3]; 8 µg/mL (≈ 16.3 µM) in assay [4]; 16 µg/mL (≈ 32.7 µM) in assay [5]; 8 µg/mL (≈ 16.3 µM) in assay [6].
For the compound `CC(=O)NC[C@H]1CN(c2ccc(N3CCC(Nc4ccc([N+](=O)[O-])o4)CC3)c(F)c2)C(=O)O1`, the MIC in assay [1] turned out to be 1 µg/mL (≈ 2.17 µM); in assay [2], 1 µg/mL (≈ 2.17 µM); in assay [3] it was 2 µg/mL (≈ 4.33 µM); in assay [4] it was 0.5 µg/mL (≈ 1.08 µM); in assay [5], 0.25 µg/mL (≈ 0.542 µM); in assay [6] it was 0.5 µg/mL (≈ 1.08 µM).
With `CC(=O)NC[C@H]1CN(c2ccc(N3CCN(Cc4ccc(C)o4)CC3)c(F)c2)C(=O)O1`, the MIC in assay [1], in assay [2], in assay [3], in assay [4], in assay [5] and in assay [6] was above 16 µg/mL each time.
`CC(=O)NC[C@H]1CN(c2ccc(N3CCOCC3)c(F)c2)C(=O)O1` [LINEZOLID] registered an ED50 in assay [7] of 5.6 mg/kg. For the same compound, the minimal inhibitory concentration (MIC) in assay [5] and in assay [6] was 2 µg/mL (≈ 5.93 µM) each time.
As for `CC(=O)NC[C@H]1CN(c2ccc(N3CCC(N(C(C)=O)c4ccc([N+](=O)[O-])o4)CC3)c(F)c2)C(=O)O1`, the MIC in assay [1], in assay [2], in assay [3], in assay [4], in assay [5] and in assay [6] was above 16 µg/mL in each case.
With `CC(=O)NC[C@H]1CN(c2ccc(N3C[C@@H]4[C@H](C3)[C@H]4N(C)c3ccc([N+](=O)[O-])o3)c(F)c2)C(=O)O1`, the minimum inhibitory concentration (MIC) in assay [2] amounted to 2 µg/mL (≈ 4.22 µM); in assay [3], 2 µg/mL (≈ 4.22 µM); in assay [4], 1 µg/mL (≈ 2.11 µM); in assay [5] it was 0.06 µg/mL (≈ 0.127 µM); in assay [6], 2 µg/mL (≈ 4.22 µM).
On to `CC(=O)NC[C@H]1CN(c2ccc(N3CCN(Cc4ccc([N+](=O)[O-])o4)CC3C)c(F)c2)C(=O)O1` (some centres undefined), for which the MIC in assay [1] came to 2 µg/mL (≈ 4.21 µM); in assay [2], 4 µg/mL (≈ 8.41 µM); in assay [3] it was 8 µg/mL (≈ 16.8 µM); in assay [4], 4 µg/mL (≈ 8.41 µM); in assay [5], 4 µg/mL (≈ 8.41 µM); in assay [6], 4 µg/mL (≈ 8.41 µM).
On to `CC(=O)NC[C@H]1CN(c2ccc(N3CCN(Cc4ccc(C#N)o4)CC3)c(F)c2)C(=O)O1`, for which the MIC in assay [1], in assay [2], in assay [3], in assay [4], in assay [5] and in assay [6] was 16 µg/mL (≈ 36.2 µM) each time.
In the case of `CC(=O)NC[C@H]1CN(c2ccc(N3CCN(Cc4ccc(COC(C)=O)o4)CC3)c(F)c2)C(=O)O1`, the MIC in assay [1], in assay [2], in assay [3], in assay [4], in assay [5] and in assay [6] was above 16 µg/mL each time.
As for `CN[C@H](CC(C)C)C(=O)N[C@H]1C(=O)N[C@@H](CC(N)=O)C(=O)N[C@H]2C(=O)N[C@H]3C(=O)N[C@H](C(=O)N[C@H](C(=O)O)c4cc(O)cc(O)c4-c4cc3ccc4O)[C@H](O)c3ccc(c(Cl)c3)Oc3cc2cc(c3O[C@@H]2O[C@H](CO)[C@@H](O)[C@H](O)[C@H]2O[C@H]2C[C@](C)(N)[C@H](O)[C@H](C)O2)Oc2ccc(cc2Cl)[C@H]1O` [VANCOMYCIN], the median effective dose (ED50) in assay [7] came to 8.8 mg/kg. The minimum inhibitory concentration (MIC) was 0.5 µg/mL (≈ 0.345 µM) in assay [3] and above 16 µg/mL in assay [4].
In the case of `CC(=O)NC[C@H]1CN(c2ccc(N3CCC(N(C)c4ccc([N+](=O)[O-])o4)CC3)c(F)c2)C(=O)O1`, the minimal inhibitory concentration (MIC) turned out to be 0.5 µg/mL (≈ 1.05 µM) in assay [1]; 1 µg/mL (≈ 2.1 µM) in assay [2]; 0.5 µg/mL (≈ 1.05 µM) in assay [3]; 0.25 µg/mL (≈ 0.526 µM) in assay [4]; 0.125 µg/mL (≈ 0.263 µM) in assay [5]; 0.5 µg/mL (≈ 1.05 µM) in assay [6]. In assay [7], the ED50 worked out at 7.43 mg/kg.
As to `CC(=O)NC[C@H]1CN(c2ccc(N3CCN(Cc4ccc(CO)o4)CC3)c(F)c2)C(=O)O1`, the minimum inhibitory concentration (MIC) in assay [1], in assay [2], in assay [3], in assay [4], in assay [5] and in assay [6] was above 16 µg/mL each time.
With `CCOC(=O)c1ccc(CN2CCN(c3ccc(N4C[C@H](CNC(C)=O)OC4=O)cc3F)CC2)o1`, the MIC in assay [1], in assay [2], in assay [3], in assay [4], in assay [5] and in assay [6] was above 16 µg/mL throughout.
Consider `CC(=O)NC[C@H]1CN(c2ccc(N3CCCN(Cc4ccc([N+](=O)[O-])o4)CC3)c(F)c2)C(=O)O1.Cl`, for which the minimal inhibitory concentration (MIC) came to 1 µg/mL in assay [1]; 2 µg/mL in assay [2]; 1 µg/mL in assay [3]; 2 µg/mL in assay [4]; 1 µg/mL in assay [5]; 2 µg/mL in assay [6]. This compound also gave a median effective dose (ED50) in assay [7] above 25 mg/kg.
`CC(=O)NC[C@H]1CN(c2ccc(N3CCN(Cc4ccc(C(=O)O)o4)CC3)c(F)c2)C(=O)O1`: the MIC in assay [1], in assay [2], in assay [3], in assay [4], in assay [5] and in assay [6] was above 16 µg/mL in each case.
`CC(=O)NC[C@H]1CN(c2ccc(N3CCN(Cc4ccoc4[N+](=O)[O-])CC3)c(F)c2)C(=O)O1`: the minimal inhibitory concentration (MIC) in assay [1] came to 4 µg/mL (≈ 8.67 µM); in assay [2] it was 8 µg/mL (≈ 17.3 µM); in assay [3] it was 1 µg/mL (≈ 2.17 µM); in assay [4], 4 µg/mL (≈ 8.67 µM); in assay [5], 1 µg/mL (≈ 2.17 µM); in assay [6], 4 µg/mL (≈ 8.67 µM).
Regarding `CC(=O)NC[C@H]1CN(c2ccc(N3CCN(Cc4ccco4)CC3)c(F)c2)C(=O)O1`, the MIC in assay [1] came out at 8 µg/mL (≈ 19.2 µM); in assay [2], 8 µg/mL (≈ 19.2 µM); in assay [3] it was 8 µg/mL (≈ 19.2 µM); in assay [4], 8 µg/mL (≈ 19.2 µM); in assay [5], 4 µg/mL (≈ 9.6 µM); in assay [6], 8 µg/mL (≈ 19.2 µM). In addition, the ED50 in assay [7] is above 25 mg/kg.
Consider `CC(=O)NC[C@H]1CN(c2ccc(N3CCN(Cc4ccc(C=O)o4)CC3)c(F)c2)C(=O)O1`, for which the MIC came out at 1 µg/mL (≈ 2.25 µM) in assay [1]; 1 µg/mL (≈ 2.25 µM) in assay [2]; 4 µg/mL (≈ 9 µM) in assay [3]; 8 µg/mL (≈ 18 µM) in assay [4]; 8 µg/mL (≈ 18 µM) in assay [5]; 8 µg/mL (≈ 18 µM) in assay [6]. This compound also returned a median effective dose (ED50) in assay [7] above 25 mg/kg.
As for `CC(=O)NC[C@H]1CN(c2ccc(N3CCN(Cc4ccc(/C=N/O)o4)CC3)c(F)c2)C(=O)O1`, the MIC worked out at 2 µg/mL (≈ 4.35 µM) in assay [1]; 2 µg/mL (≈ 4.35 µM) in assay [2]; 8 µg/mL (≈ 17.4 µM) in assay [3]; 16 µg/mL (≈ 34.8 µM) in assay [4]; 4 µg/mL (≈ 8.71 µM) in assay [5]; 8 µg/mL (≈ 17.4 µM) in assay [6].
Turning to `CC(=O)NC[C@H]1CN(c2ccc(N3CCN(Cc4ccc([N+](=O)[O-])[nH]4)CC3)c(F)c2)C(=O)O1`, the MIC came to 4 µg/mL (≈ 8.69 µM) in assay [1]; 4 µg/mL (≈ 8.69 µM) in assay [2]; 4 µg/mL (≈ 8.69 µM) in assay [3]; 4 µg/mL (≈ 8.69 µM) in assay [4]; 1 µg/mL (≈ 2.17 µM) in assay [5]; 4 µg/mL (≈ 8.69 µM) in assay [6].
Take `CC(=O)NC[C@H]1CN(c2ccc(N3CCN(Cc4ccc(Br)o4)CC3)c(F)c2)C(=O)O1`: the minimal inhibitory concentration (MIC) in assay [1], in assay [2], in assay [3], in assay [4], in assay [5] and in assay [6] was above 16 µg/mL each time.
As to `CC(=O)NC[C@H]1CN(c2ccc(N3CCN(Cc4ccc([N+](=O)[O-])n4C)CC3)c(F)c2)C(=O)O1`, the MIC in assay [1] turned out to be 4 µg/mL (≈ 8.43 µM); in assay [2], 4 µg/mL (≈ 8.43 µM); in assay [3] it was 8 µg/mL (≈ 16.9 µM); in assay [4] it was 4 µg/mL (≈ 8.43 µM); in assay [5], 2 µg/mL (≈ 4.22 µM); in assay [6] it was 4 µg/mL (≈ 8.43 µM).
With `CC(=O)NC[C@H]1CN(c2ccc(N3CCN(Cc4ccc(/C=N/N)o4)CC3)c(F)c2)C(=O)O1`, the minimal inhibitory concentration (MIC) in assay [1] was determined as 1 µg/mL (≈ 2.18 µM); in assay [2] it was 2 µg/mL (≈ 4.36 µM); in assay [3], 8 µg/mL (≈ 17.4 µM); in assay [4], 8 µg/mL (≈ 17.4 µM); in assay [5] it was 8 µg/mL (≈ 17.4 µM); in assay [6] it was 8 µg/mL (≈ 17.4 µM).
